Two compounds from patent US11325937B2, “Glycoside compound and preparation method therefor, composition, application, and intermediate” (SHANGHAI HUTCHISON PHARMACEUTICALS LIMITED, priority 2018, dated 2022) can be followed below.

Each structure is given as a SMILES string.

This test deals with VEGF-A mRNA expression in macrophages (RAW264.7). Kind of test: In vitro macrophage experiment: activity of compounds to promote VEGF-A mRNA expression (RT-qPCR). The test is classed as cell-based. The conditions noted are these: Mus musculus, RAW264.7 macrophages, 3 h, relative expression, no drug = 1, read-out: Expression level of VEGF-A mRNA; for fold induction at 500 µM: 0.5 mM; for fold induction at 1000 µM: 1 mM; for fold induction at 2000 µM: 2 mM; for fold induction at 3000 µM: 3 mM; for fold induction at 4000 µM: 4 mM. A digest of the protocol: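 RAW264.7 macrophages were exposed to test compounds at various concentrations for 3 h at 37° C. VEGF-A mRNA was measured by SYBR Green RT-qPCR, normalized to β-Actin, and expressed as 2^−ΔΔCt relative to untreated cells (=1). Activity is the maximal fold induction, with ≥4 as hit criterion.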

As to `COc1ccc(CCCCO[C@@H]2O[C@H](CO)[C@@H](O)[C@H](O)[C@H]2O)cc1` [TG-028], the fold induction at 500 µM amounted to 0.79, the fold induction at 1000 µM was 0.39, the fold induction at 2000 µM amounted to 6.77 and the fold induction at 3000 µM was found to be 13.4. Also, the fold induction at 4000 µM was determined as 4.23.

Consider `OC[C@H]1O[C@@H](OCCc2ccccc2)[C@H](O)[C@@H](O)[C@@H]1O` [TG-055], for which the fold induction at 500 µM came out at 6.36, the fold induction at 1000 µM was determined as 2.11, the fold induction at 2000 µM is 4.44 and the fold induction at 3000 µM came out at 3.81. The fold induction at 4000 µM was 6.11.
